Results reported in patent publication US20080318954A1, “Compounds” (Cyclacel Limited, priority 2004, published 2008).
Entries after “also recorded” stand apart in the source; their conditions may differ.

How the values were obtained:
SAPK2a/p38 = biological target: T1, SAPK2a/p38 (Homo sapiens, UniProt Q16539); assay: Protein kinase panel selectivity screen, SAPK2a/p38; format: biochemical; conditions: 1 μM compound; [ATP] 50 μM
T1 construct: Dundee University (panel)
Description: (§1) The names of the 29 kinases comprising the selectivity screen, as well as the ATP concentrations used in each kinase case, are given in Table 5. The kinase assays were carried out as described previously.
(§2) Compound XIV at a concentration of 1 μM was screened in the 29-kinase panel (Dundee University) and the results are shown bellow in Table 6.

[1] = tested on: β-catenin in HEK293 cells; assay: β-catenin accumulation and phosphorylation in HEK293 cells; format: cell-based, human; conditions: up to 5 μM
From the text: One of the possible toxicities related to GSK3 inhibition is the accumulation of β-catenin, which has been implicated in the development of colon cancer and melanoma. The effect of example compound XIV on the endogenous levels of β-catenin in HEK293 cells was studied at concentrations that are effective in activation of cellular glycogen synthase.

SAPK4/p38d = biological target: T2, SAPK4/p38d (Homo sapiens, UniProt O15264); assay: Protein kinase panel selectivity screen, SAPK4/p38d; format: biochemical; conditions: 1 μM compound
T2 construct: Dundee University (panel)
Description: as §1, §2

DYRK1a = biological target: T3, DYRK1a (Homo sapiens, UniProt Q13627); assay: Protein kinase panel selectivity screen, DYRK1a; format: biochemical; conditions: 1 μM compound; [ATP] 50 μM
T3 construct: Dundee University (screening panel)
Description: as §1, §2

JNK/SAPK1c = biological target: T4, JNK/SAPK1c (Homo sapiens, UniProt P45983); assay: Protein kinase panel selectivity screen, JNK/SAPK1c; format: biochemical; conditions: 1 μM compound
T4 construct: Dundee University (panel)
Description: as §1, §2

ZDF fa/fa rats = assay: Oral glucose tolerance test (OGTT); format: in vivo, rat; conditions: 5 mg/kg i.v. at −270 and −30 min, 2 g/kg oral glucose
Description: Test compound was administrated in 10-11 weeks old ZDF rats at 5 mg/kg i.v. at −270 and −30 min. At 0 min 2 g/kg oral glucose load was given and blood samples were collected at 15 min intervals to determine the blood glucose levels.
For the OGTT male ZDF fa/fa rats (Charles River, USA), 10-11 weeks old, were used. After 15 h fasting the animals were dosed intravenously with 5 mg/kg test compound in dosing vehicle, or with dosing vehicle (10% DMSO, 90% PEG-400) only at −270 and −30 min. At 0 min the rats were given 2 g/kg glucose by oral gavage. Plasma samples were taken before and every 15 min after the OGTT for determination of blood glucose.

PKBdelta PH = biological target: T5, PKBdelta PH (Homo sapiens, UniProt P31749, S473D); assay: Protein kinase panel selectivity screen, PKBdelta PH; format: biochemical; conditions: 1 μM compound; [ATP] 5 μM
T5 construct: Dundee University (panel)
Description: as §1, §2

T2 sequence (O15264 whole entry): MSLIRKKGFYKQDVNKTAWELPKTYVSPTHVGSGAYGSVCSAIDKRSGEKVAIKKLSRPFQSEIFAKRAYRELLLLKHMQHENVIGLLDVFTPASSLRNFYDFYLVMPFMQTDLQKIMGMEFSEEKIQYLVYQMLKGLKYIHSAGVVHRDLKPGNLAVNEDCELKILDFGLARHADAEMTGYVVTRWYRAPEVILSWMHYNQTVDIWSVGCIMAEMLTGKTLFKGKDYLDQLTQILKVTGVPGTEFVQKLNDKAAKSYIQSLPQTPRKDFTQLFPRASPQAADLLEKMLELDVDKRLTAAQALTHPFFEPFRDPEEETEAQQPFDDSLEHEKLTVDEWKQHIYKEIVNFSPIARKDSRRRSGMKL
T4 sequence (P45983 whole entry): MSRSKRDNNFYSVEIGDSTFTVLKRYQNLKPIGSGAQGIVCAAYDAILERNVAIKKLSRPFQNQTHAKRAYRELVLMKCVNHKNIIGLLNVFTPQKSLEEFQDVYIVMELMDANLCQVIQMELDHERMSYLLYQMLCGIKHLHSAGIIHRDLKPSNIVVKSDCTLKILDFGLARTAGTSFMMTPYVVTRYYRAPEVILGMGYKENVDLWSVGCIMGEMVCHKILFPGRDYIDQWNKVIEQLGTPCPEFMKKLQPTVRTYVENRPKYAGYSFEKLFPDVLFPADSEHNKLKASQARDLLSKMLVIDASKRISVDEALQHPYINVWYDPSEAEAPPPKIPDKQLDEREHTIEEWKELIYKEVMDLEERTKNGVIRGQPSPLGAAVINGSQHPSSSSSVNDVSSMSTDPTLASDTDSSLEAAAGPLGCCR
T5 sequence (P31749 118-480 S473D limits assumed): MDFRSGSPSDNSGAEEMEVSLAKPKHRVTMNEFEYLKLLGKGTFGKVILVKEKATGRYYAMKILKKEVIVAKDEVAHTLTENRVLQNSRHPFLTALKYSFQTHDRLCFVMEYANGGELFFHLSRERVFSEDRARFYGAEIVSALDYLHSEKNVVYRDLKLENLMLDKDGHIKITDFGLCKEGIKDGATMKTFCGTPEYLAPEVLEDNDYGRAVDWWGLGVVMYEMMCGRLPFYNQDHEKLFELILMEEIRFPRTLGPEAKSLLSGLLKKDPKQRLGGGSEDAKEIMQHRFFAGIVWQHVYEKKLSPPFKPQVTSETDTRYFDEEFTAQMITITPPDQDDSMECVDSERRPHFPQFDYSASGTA
T1 sequence (Q16539 whole entry): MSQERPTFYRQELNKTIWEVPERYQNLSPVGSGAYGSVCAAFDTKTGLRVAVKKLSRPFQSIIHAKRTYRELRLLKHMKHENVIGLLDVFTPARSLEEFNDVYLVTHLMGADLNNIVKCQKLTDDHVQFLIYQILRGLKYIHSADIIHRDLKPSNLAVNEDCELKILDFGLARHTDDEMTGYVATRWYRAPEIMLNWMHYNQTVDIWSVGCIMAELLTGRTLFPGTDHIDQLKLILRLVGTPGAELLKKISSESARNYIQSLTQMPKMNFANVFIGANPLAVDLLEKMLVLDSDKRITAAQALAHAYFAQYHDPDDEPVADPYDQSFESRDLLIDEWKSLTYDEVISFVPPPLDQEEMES

Clc1ccc(Nc2nccc(-c3nccs3)n2)cn1 [Compound XIV, (6-Chloro-pyridin-3-yl)-(4-thiazol-2-yl-pyrimidin-2-yl)-amine]
activity at 1 µM (SAPK2a/p38): 84 ± 7% | Levels of cellular β-catenin [1]: lack of β-catenin accumulation; also recorded: did not change significantly | Phosphorylation of β-catenin at the GSK3-specific sites S33,37/T41 [1]: did not inhibit the phosphorylation | inhibition at 1 µM (SAPK4/p38d): ~40% | activity at 1 µM (SAPK4/p38d; [ATP] 5 μM): 91 ± 9% | activity at 1 µM (DYRK1a): 74 ± 8% | inhibition at 1 µM (JNK/SAPK1c): ~40% | activity at 1 µM (JNK/SAPK1c; [ATP] 20 μM): 56 ± 4% | Decrease of absolute AUC level (blood glucose) (ZDF fa/fa rats): 29% | Decrease of reactive AUC level (blood glucose) (ZDF fa/fa rats): 44% | Glucose tolerance (ZDF fa/fa rats): improved the glucose tolerance in ZDF rats significantly | activity at 1 µM (PKBdelta PH): 98 ± 1%
